Each structure is given as a SMILES string.

The subject of this assay is Mycobacterium tuberculosis. The assay is described as follows: microplate Alamar Blue assay (MABA) against Mycobacterium tuberculosis. The note with it: MIC and IC50 values only in Scheme 5. It counts as cell-based. The source says:
The skilled artisan is well aware of the methods for measuring growth of mycobacteria. A common method of detecting growth in mycobacterial cultures involves the use of […]. An exemplary method is the microplate Alamar Blue assay (MABA), described in Falzari, et al., Antimicrob. Agents Chemother. 2005, 49, 1447-1454 (2005), content of which is herein incorporated by reference.
The library compounds of ureas 7, amides 8, and sulfonamides 9 were screened for activity against Mycobacterium tuberculosis using the microplate Alamar Blue assay (MABA), described in Falzari, et al., Antimicrob. Agents Chemother. 2005, 49, 1447-1454 (2005), content of which is herein incorporated by reference. The MIC values were established after initial positive hits were identified (>80% inhibition at 10 μg/mL). Cytotoxicity assays were performed on Vero cells with IC50 values greater than 50 μg/mL under the assay conditions. Activities were subsequently validated in duplicate assays with resynthesized compound.
(Resazurin is reduced to fluorescent resorufin, in cell work by metabolically active cells.)
On to `COc1ccc(-c2nc3c(c4c2C[C@H](c2ccccc2)OC4)CN(C(=O)N[C@H](C)c2ccccc2)CC3)c(C)c1` [7{4,1}], for which the “activity against Mycobacterium tuberculosis” value (“activity” below) is reported as “significant activities”.
Take `COc1ccc(NC(=O)N2CCc3nc(-c4ccc(OC)cc4C)c4c(c3C2)CO[C@@H](c2ccccc2)C4)cc1` [7{4,2}, (R)-6-(4-Methoxy-2-methylphenyl)-N-(4-methoxyphenyl)-8-phenyl-3,4,7,8-tetrahydro-1H-pyrano[4,3-c][1,6]naphthyridine-2(10H)-carboxamide]: the “activity” value is “significant activities”.
Regarding `COc1ccc(-c2nc3c(c4c2C[C@H](c2ccccc2)OC4)CN(S(=O)(=O)c2ccc(C#N)cc2)CC3)c(C)c1` [9{4,4}], the “activity” value is on record as “significant activities”.
